{"source": "paper PMC4792161", "about": "“A novel pyrazole derivative protects from ovariectomy-induced osteoporosis through the inhibition of NADPH oxidase” (Scientific Reports, 2016)", "key": {"Mature OCs": {"tested_on": "Mature OCs", "experiment": "TUNEL assay, apoptosis of OCs", "assay_type": "cell-based", "settings": "10 μM, absence or presence of RANKL", "experimental": "Apoptotic cells were detected by the […] nick end labeling (TUNEL) assay In Situ Cell Death Detection Kit (Roche Applied Science, Basel, Switzerland) according to the manufacturer’s instructions. […] The percentage of positively stained cells was determined by counting the numbers of TUNEL labeled and DAPI stained cells. The experiments were repeated 3 times, and the mean values were calculated.\nSupplementary Figure S5. […] Mature OCs were\ngenerated with M-CSF and RANKL. Cells were washed with PBS and then treated with Ewha-18278\n(10 μM) or DMSO with or without RANKL for 20 hours. Cells were subjected into TUNEL assay. Data […]"}, "[1]": {"tested_on": "OVX-induced osteoporotic ddY mice", "experiment": "Femur histopathology-histomorphometry in OVX mice", "assay_type": "in vivo", "experimental": "Risedronate sodium (2.5 mg/kg) served as a reference compound. […] Histopathology and histomorphometrical analyses including trabecular bone volume (BV/TV), trabecular bone number (Tb.N), trabecular bone length (Tb.Le), trabecular bone thickness (Tb.Th), cortical bone thickness (Ct.Th), OC number (N.Oc), bone mineral density (BMD) and bone strength (failure load, FL) were conducted.\nThe study was reviewed and approved by the Institutional Animal Care and Use Committee (IACUC) of Center for Laboratory Animal Sciences, Ewha Industry-University Cooperation Foundation, Ewha Womans University. Experimental methods were carried out in accordance with the approved ethic guidelines in Ewha Industry-University Cooperation Foundation, Ewha Womans University. Beginning 4 weeks after OVX, the female ddY mice received 2.5, 5, 10, or 20 mg/kg of #18–278, 2.5 mg/kg of risedronate, or vehicle once daily for 28 days. The Changes in body weight, bone weight, bone mineral density (BMD), failure load (FL), bone calcium (Ca), inorganic phosphorus (P) contents, histology and histomorphology were monitored. Serum osteocalcin and bone specific alkaline phosphatase (bALP) were monitored in mice receiving Ewha-18278.\nThe left side of femur of each mouse was separated and fixed in 10% neutral buffered formalin and decalcified in a solution comprised of 24.4% formic acid and 0.5N sodium hydroxide for 5 days, with spent solution replaced with fresh solution each day. Each sample was embedded in paraffin, sectioned to a thickness of 3–4 μm and exposed to with Hematoxylin & Eosin (H&E) stain. Histomorphometry was conducted as for bone mass and structure with bone resorption in a uniform area of epiphyseal regions of femur (growth plate regions were excluded). Cortical bone thickness was measured in the mid-shaft region of the femur."}, "Pre-OCs": {"tested_on": "Pre-OCs", "experiment": "OC fusion assay", "assay_type": "cell-based, C57BL/6 mice", "settings": "10 μM, 24 hours", "experimental": "Cells were stained for TRAP using a leukocyte acid phosphatase cytochemistry kit (Sigma-Aldrich, St. Louis, MO, USA) according to the manufacturer’s instructions. […]\nScale bar, 500 μm. (C,D) Mature OCs were generated with M-CSF and RANKL, cells were seeded onto dentine discs and further cultured with […]\nCells were stained with hematoxylin for visualization of pit formation (C). The area of resorption pits were measured with Image-Pro Plus 4.5 (D). Scale bar, 500\nμm. Data represent mean ± S.D., n.s., not significant. […]"}, "[2]": {"tested_on": "OVX-induced osteoporotic ddY mice", "experiment": "Number of OBs in cortical bone lining of OVX mice (H&E)", "settings": "mouse, in vivo", "experimental": "Sham OVX Risedronate 20 mg/kg 10 mg/kg 5 mg/kg 2.5 mg/kg20.0mg/kg 10.0mg/kg 5.0mg/kg 2.5mg/kg […]\nSupplementary Figure S8. […] CB number was […]\ncounted in osteoblastic lining in cortical bone with H&E staining. a p<0.005 and b p<0.005 as compared with OVX and Risendronate, respectively, c p<0.005 and d p<0.005 as compared with 20"}, "[3]": {"tested_on": "OVX-induced osteoporotic ddY mice", "experiment": "Tibia histopathology-histomorphometry in OVX mice", "assay_type": "in vivo"}, "[4]": {"settings": "2.5 mg/kg oral once daily 28 days"}, "[5]": {"settings": "5 mg/kg oral once daily 28 days"}, "[6]": {"settings": "10 mg/kg oral once daily 28 days"}, "[7]": {"settings": "20 mg/kg oral once daily 28 days"}}, "note": "Where a name gives a salt, the structure may show the parent alone. Marks after values point to notes of the source that are not given here.", "data": [{"smiles": "CCCc1c(-c2ccccc2)nn(-c2ccccn2)c1O", "note": "[Ewha-18278, 3-phenyl-1-(pyridin-2-yl)-4-propyl-1H-5-hydroxypyrazole HCl]", "values": [{"measurement": "apoptosis of OCs", "setting": "Mature OCs", "value": "had no effect on apoptosis"}, {"measurement": "BV/TV (trabecular bone volume)", "setting": "[1]; [4]", "value": "23.62 ± 3.63 ^a %"}, {"measurement": "Ct.Th (cortical bone thickness)", "setting": "[1]; [4]", "value": "136.48 ± 10.32 ^a μm"}, {"measurement": "N.OC/BS (osteoclast cell number, N/epiphyseal)", "setting": "[1]; [4]", "value": "13.75 ± 2.25 ^e numbers"}, {"measurement": "Tb.N (trabecular bone number, N/epiphyseal)", "setting": "[1]; [4]", "value": "9.75 ± 1.67 ^e numbers"}, {"measurement": "Tb.Th (trabecular bone thickness)", "setting": "[1]; [4]", "value": "40.98 ± 5.94 ^a μm"}, {"measurement": "BV/TV (trabecular bone volume)", "setting": "[1]; [5]", "value": "29.06 ± 2.72 ^ac %"}, {"measurement": "Ct.Th (cortical bone thickness)", "setting": "[1]; [5]", "value": "159.04 ± 13.45 ^ac μm"}, {"measurement": "N.OC/BS (osteoclast cell number, N/epiphyseal)", "setting": "[1]; [5]", "value": "10.63 ± 2.77 ^eg numbers"}, {"measurement": "Tb.N (trabecular bone number, N/epiphyseal)", "setting": "[1]; [5]", "value": "11.25 ± 1.04 ^eh numbers"}, {"measurement": "Tb.Th (trabecular bone thickness)", "setting": "[1]; [5]", "value": "52.98 ± 8.96 ^ac μm"}, {"measurement": "BV/TV (trabecular bone volume)", "setting": "[1]; [6]", "value": "33.63 ± 3.51 ^c %"}, {"measurement": "Ct.Th (cortical bone thickness)", "setting": "[1]; [6]", "value": "165.52 ± 12.06 ^ac μm"}, {"measurement": "N.OC/BS (osteoclast cell number, N/epiphyseal)", "setting": "[1]; [6]", "value": "6.63 ± 1.30 ^eg numbers"}, {"measurement": "Tb.N (trabecular bone number, N/epiphyseal)", "setting": "[1]; [6]", "value": "15.38 ± 1.60 ^eg numbers"}, {"measurement": "Tb.Th (trabecular bone thickness)", "setting": "[1]; [6]", "value": "68.14 ± 11.23 ^ac μm"}, {"measurement": "BV/TV (trabecular bone volume)", "setting": "[1]; [7]", "value": "34.07 ± 3.89 ^c %"}, {"measurement": "Ct.Th (cortical bone thickness)", "setting": "[1]; [7]", "value": "198.06 ± 12.51 ^c μm"}, {"measurement": "N.OC/BS (osteoclast cell number, N/epiphyseal)", "setting": "[1]; [7]", "value": "5.63 ± 1.41 ^fg numbers"}, {"measurement": "Tb.N (trabecular bone number, N/epiphyseal)", "setting": "[1]; [7]", "value": "16.63 ± 1.19 ^eg numbers"}, {"measurement": "Tb.Th (trabecular bone thickness)", "setting": "[1]; [7]", "value": "71.98 ± 12.20 ^ac μm"}, {"measurement": "fusion of OCs", "setting": "Pre-OCs", "value": "did not affect"}, {"measurement": "number of OBs in tibia and femur compared to OVX control mice", "setting": "[2]", "value": "increased"}, {"measurement": "BV/TV (trabecular bone volume)", "setting": "[3]; [4]", "value": "19.04 ± 3.10 ^a %"}, {"measurement": "Ct.Th (cortical bone thickness)", "setting": "[3]; [4]", "value": "122.04 ± 11.96 ^a μm"}, {"measurement": "N.OC/BS (osteoclast cell number, N/epiphyseal)", "setting": "[3]; [4]", "value": "14.13 ± 3.44 ^a numbers"}, {"measurement": "Tb.N (trabecular bone number, N/epiphyseal)", "setting": "[3]; [4]", "value": "8.63 ± 1.60 ^a numbers"}, {"measurement": "Tb.Th (trabecular bone thickness)", "setting": "[3]; [4]", "value": "34.89 ± 5.16 ^a μm"}, {"measurement": "BV/TV (trabecular bone volume)", "setting": "[3]; [5]", "value": "29.39 ± 2.41 ^bc %"}, {"measurement": "Ct.Th (cortical bone thickness)", "setting": "[3]; [5]", "value": "137.51 ± 10.96 ^ac μm"}, {"measurement": "Tb.N (trabecular bone number, N/epiphyseal)", "setting": "[3]; [5]", "value": "12.50 ± 1.31 ^ac numbers"}, {"measurement": "Tb.Th (trabecular bone thickness)", "setting": "[3]; [5]", "value": "48.34 ± 6.87 ^ac μm"}, {"measurement": "BV/TV (trabecular bone volume)", "setting": "[3]; [6]", "value": "33.36 ± 4.35 ^c %"}, {"measurement": "Ct.Th (cortical bone thickness)", "setting": "[3]; [6]", "value": "182.11 ± 12.48 ^c μm"}, {"measurement": "N.OC/BS (osteoclast cell number, N/epiphyseal)", "setting": "[3]; [6]", "value": "8.13 ± 2.23 ^ac numbers"}, {"measurement": "Tb.N (trabecular bone number, N/epiphyseal)", "setting": "[3]; [6]", "value": "15.00 ± 2.00 ^ac numbers"}, {"measurement": "Tb.Th (trabecular bone thickness)", "setting": "[3]; [6]", "value": "53.36 ± 5.94 ^ac μm"}, {"measurement": "BV/TV (trabecular bone volume)", "setting": "[3]; [7]", "value": "33.78 ± 3.47 ^c %"}, {"measurement": "Ct.Th (cortical bone thickness)", "setting": "[3]; [7]", "value": "194.28 ± 15.50 ^c μm"}, {"measurement": "N.OC/BS (osteoclast cell number, N/epiphyseal)", "setting": "[3]; [7]", "value": "6.88 ± 2.36 ^ac numbers"}, {"measurement": "Tb.N (trabecular bone number, N/epiphyseal)", "setting": "[3]; [7]", "value": "17.13 ± 1.81 ^c numbers"}, {"measurement": "Tb.Th (trabecular bone thickness)", "setting": "[3]; [7]", "value": "55.98 ± 7.15 ^ac μm"}]}]}
